For data set [1] the following is noted: oral; cited from earlier work.
The test system of data set [2] is patients. Particulars: oral formulations; cited from earlier work.
For data set [3] the following is noted: oral; cited from earlier work. This is another data set of the same source.
The subject of data set [4] is arthritic patients. Kind of data set: Topical cetylated fatty ester complexes with rubefacients versus placebo base, joint functionality and pain. Conditions: eucalyptus oil 1% to 5%, camphor 1-7% in the carrier formulation. In kind it is in vivo, human. The text has this:
The composition of the invention provides for the administration of permeants with anti-arthritic properties. A topical application consisting of the cetylated fatty ester complexes in concentrations of 5% to 20% with rubefacients (such as methyl salicylate, menthol and for some variations capsaicin can be applied to affected areas of arthritic patients). The permeants were at concentrations ranging from 1-30%. The carrier formulation consisted of a penetrant group of 8 cetyl fatty esters (4-9%; cetyl decanoate, cetyl laurate, cetyl myristate, cetyl myristoleate, cetyl oleate, cetyl palmitate, cetyl palmitoleate and cetyl stearate) with propylene glycol as the polar solvent (12%), in the described cream base at a pH of 6.5. One variation of carrier formulation is also an anti-inflammatory and is used topically to treat joint pain and musculoskeletal pain and other types of pains in arthritis (Kraemer W J et al. 2004 J Rheumatology 31:767-74; Kraemer W J et al. 2005 J Strength and Conditioning Res 19: 475-80 and Sharan et al. 2009, submitted for publication), The preferred polar solvent is propylene glycol. […]

The conditions of data set [5]: intravenous injection, 5 mg; cited from earlier work.
A short description of data set [6]: Permeation in the CFEP formulations. Conditions: in any of the three formulations of Example 3.
For data set [7] the following is noted: free base; cited from earlier work.
The test system of data set [8] is mouse skin. Kind of data set: Transdermal diazepam in CFEP-Complex formulation delivered to mouse skin. Conditions: single application to mouse skin in 4-9% CFEP-Complex formulation; preliminary, 'may provide'. In kind it is in vivo. On the procedure:
A formulation for transdermal delivery is a novel format for diazepam or lorazepam or clonazepam, and utilizes the lipophilic properties of each molecule. In one example diazepam is administered in 3 doses, namely 10 mg/gram, 25 mg/gram and 50 mg/gram using a 4-9% CFEP-Complex carrier formulation consisting of cetyl decanoate, cetyl laurate, cetyl myristate, cetyl myristoleate, cetyl oleate, cetyl palmitate, cetyl palmitoleate and cetyl stearate. The polar solvent used is propylene glycol (12%) in the described cream base at a pH of 6.5. A pH range of 6-7 is effective and tocopherol acetate is the antioxidant at 1%. […] The permeant is first finely emulsified in the CFEP-Complex and polar solvent prior to addition of the cream base. A single application of diazepam delivered to mouse skin in this formulation may provide pronounced activity for 5-8 hours. […] Pregabalin in a topical format is also an excellent anti-convulsant and useful in the treatment of seizure already described in examples 4 and 5 above.

For `C/C1=C2/[N-][C@H]([C@H](CC(N)=O)[C@@]2(C)CCC(=O)NC[C@@H](C)OP(=O)([O-])O[C@H]2[C@@H](O)[C@@H](n3cnc4cc(C)c(C)cc43)O[C@@H]2CO)[C@]2(C)N=C(/C(C)=C3N=C(/C=C4N=C1[C@@H](CCC(N)=O)C\4(C)C)[C@@H](CCC(N)=O)[C@]\3(C)CC(N)=O)[C@@H](CCC(N)=O)[C@]2(C)CC(N)=O.[CH3-].[Co+3]` [methylcobalamin], the “rate of absorption by passive diffusion” value in data set [1] is reported as 1-2 % of the ingested material. Regarding `CC(C)C[C@H](CN)CC(=O)O` [Pregabalin], the “adverse reactions such as drowsiness and dizziness, share of the patients” value in data set [2] is on record as “more than 10%”. Also, in data set [3], the bioavailability entry is given as “more than 90%”.

As for `CC12CCC(CC1=O)C2(C)C` (centres unmarked) [camphor], the “other rubefacients found to be effective” value in data set [4] is listed as “effective”. A word on the Tmax: it is the time from dosing to the highest level. As for `CCN(CC)CC#CCOC(=O)C(O)(c1ccccc1)C1CCCCC1` (centres unmarked) [oxybutynin], the Tmax in data set [5] was 15 min. For the molecule `O=C(O)CCCCC1CCSS1` (stereo not drawn) [Alpha lipoic acid], the permeation result in data set [6] is recorded as “permeates well”.

Consider `CNC1(c2ccccc2Cl)CCCCC1=O` (centres unmarked) [Ketamine, 2-(2-chlorophenyl)-2-(methylamino)-cyclohexanone], for which the lipid solubility in data set [7] was 10 times that of thiopentone. Take `CN1C(=O)CN=C(c2ccccc2)c2cc(Cl)ccc21` [diazepam]: in data set [8], the “duration of pronounced activity” value is 5 to 8 h.

These data come from patent publication US8394759B2, “Transdermal delivery of medicaments with combinations of cetylated fatty ester penetrant complexes” (Cymbiotics, Inc., priority 2008, dated 2013).
